Experimental data: patent publication US20220372040A1, “METTL3 MODULATORS” (Accent Therapeutics, Inc., priority 2020, published 2022)
Where a name gives a salt, the structure may show the parent alone. Read-outs that look alike come from different tables or passages of the source.

Assays:
Format in all cases: biochemical
[1] = target: METTL1/WDR4 (Homo sapiens, UniProt Q9UBP6); assay: METTL1 assay (3H-SAM flashplate scintillation)
Procedure: Assays were performed in a 25 μl-volume in 384-well V-bottom polypropylene microplates (Greiner Bio-One, cat. No. 781280) at ambient temperature. Optimized 1× assay buffer was 20 mM HEPES pH 7.5, 50 mM KCl, 250 μM MgCl2, 1 mM DTT, 0.01% Tween, 0.01% BSG, 0.004 U/μl RNAseOUT (cat. No. 10777019, ThermoFisher Scientific, Waltham, Mass.). For compound screening METTL1/WDR4 (final concentration, f.c.=6.25 nM) was added using a Multidrop Combi (ThermoFisher Scientific, Waltham, Mass.) and preincubated for 5 min. Reactions were started by adding 3′ biotinylated RNA ([…]-biotin) (f.c.=25 nM) and 3H-SAM (f.c.=60 nM) substrates. Reactions proceeded for 20 minutes and were quenched with excess non-radioactive SAM (f.c.=15 μM). The reactions were then transferred to streptavidin-coated flashplates and incubated for 2 hours at 25° C. Following two washing cycles with 0.1% Tween-20, the plates were sealed and read on a TopCount (PerkinElmer, Waltham, Mass.) plate-based scintillation counter. For determination of kinetic parameters, reaction times were optimized so that measurements were taken during the initial velocity phase of the reaction.

[2] = target: METTL3/METTL14 (Homo sapiens, UniProt Q86U44); assay: METTL3-14 standard enzyme assay (3H-SAM flashplate scintillation); conditions: METTL3/METTL14 2.5 nM, RNA 100 nM, 3H-SAM 100 nM, 30 min
METTL3/METTL14, sequence (Q86U44 whole entry, species assumed): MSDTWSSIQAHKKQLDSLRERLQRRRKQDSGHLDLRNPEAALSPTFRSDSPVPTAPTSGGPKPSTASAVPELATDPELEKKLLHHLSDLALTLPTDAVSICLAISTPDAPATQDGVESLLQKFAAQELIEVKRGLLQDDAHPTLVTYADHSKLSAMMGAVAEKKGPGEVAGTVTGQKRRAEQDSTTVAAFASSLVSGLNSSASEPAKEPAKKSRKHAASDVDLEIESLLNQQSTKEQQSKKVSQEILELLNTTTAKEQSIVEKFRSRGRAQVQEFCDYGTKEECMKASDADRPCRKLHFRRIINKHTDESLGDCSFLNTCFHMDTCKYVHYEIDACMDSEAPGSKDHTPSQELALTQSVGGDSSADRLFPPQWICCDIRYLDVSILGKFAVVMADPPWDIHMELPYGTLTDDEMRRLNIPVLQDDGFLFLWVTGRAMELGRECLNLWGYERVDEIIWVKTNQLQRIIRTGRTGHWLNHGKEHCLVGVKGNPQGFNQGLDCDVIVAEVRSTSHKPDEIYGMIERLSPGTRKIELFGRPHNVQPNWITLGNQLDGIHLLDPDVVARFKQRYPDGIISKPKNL
METTL3/METTL14, sequence (Q9HCE5 whole entry partner, species assumed): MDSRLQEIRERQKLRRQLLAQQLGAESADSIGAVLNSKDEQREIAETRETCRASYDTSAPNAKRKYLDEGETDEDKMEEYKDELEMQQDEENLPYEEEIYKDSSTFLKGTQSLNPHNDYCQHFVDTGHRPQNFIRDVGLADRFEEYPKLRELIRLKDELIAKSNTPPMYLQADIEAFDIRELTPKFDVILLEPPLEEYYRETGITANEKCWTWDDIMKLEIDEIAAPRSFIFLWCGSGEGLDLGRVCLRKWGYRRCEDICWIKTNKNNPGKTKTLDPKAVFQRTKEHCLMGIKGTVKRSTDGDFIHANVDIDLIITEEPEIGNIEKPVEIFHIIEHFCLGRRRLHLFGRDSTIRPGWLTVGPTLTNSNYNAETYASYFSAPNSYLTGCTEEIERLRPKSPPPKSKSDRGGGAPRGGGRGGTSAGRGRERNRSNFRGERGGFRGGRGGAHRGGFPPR
Procedure: METTL3-14 Standard Enzyme Assay
Assays were performed in a 25 μl-volume in 384-well V-bottom polypropylene microplates (Greiner Bio-One, cat. No. 781280) at ambient temperature. Optimized 1× assay buffer was 20 mM HEPES pH 7.5, 50 mM KCl, 250 μM MgCl2, 1 mM DTT, 0.01% Tween, 0.01% BSG, 0.004 U/μl RNAseOUT (cat. No. 10777019, ThermoFisher Scientific, Waltham, Mass.). For compound screening METTL3/METTL14 (final concentration, f.c.=2.5 nM) was added using a Multidrop Combi (ThermoFisher Scientific, Waltham, Mass.) and preincubated for 5 min. Reactions were started by adding 3′ biotinylated RNA (UCUGGACUAAA-biotin) (f.c.=100 nM) and 3H-SAM (f.c.=100 nM) substrates. Reactions proceeded for 30 minutes and were quenched with excess non-radioactive SAM (f.c.=15 μM). The reactions were then transferred to streptavidin-coated flashplates and incubated for 2 hours at 25° C. Following two washing cycles with 0.1% Tween-20, the plates were sealed and read on a TopCount (PerkinElmer, Waltham, Mass.) plate-based scintillation counter. For determination of kinetic parameters, reaction times were optimized so that measurements were taken during the initial velocity phase of the reaction.

[3] = target: PRMT5-MEP50 (Homo sapiens, UniProt O14744); assay: PRMT5 assay (3H-SAM flashplate scintillation); conditions: PRMT5-MEP50 2.5 nM, histone H4 peptide 100 nM, 3H-SAM 250 nM, 60 min
PRMT5-MEP50, sequence (O14744 whole entry): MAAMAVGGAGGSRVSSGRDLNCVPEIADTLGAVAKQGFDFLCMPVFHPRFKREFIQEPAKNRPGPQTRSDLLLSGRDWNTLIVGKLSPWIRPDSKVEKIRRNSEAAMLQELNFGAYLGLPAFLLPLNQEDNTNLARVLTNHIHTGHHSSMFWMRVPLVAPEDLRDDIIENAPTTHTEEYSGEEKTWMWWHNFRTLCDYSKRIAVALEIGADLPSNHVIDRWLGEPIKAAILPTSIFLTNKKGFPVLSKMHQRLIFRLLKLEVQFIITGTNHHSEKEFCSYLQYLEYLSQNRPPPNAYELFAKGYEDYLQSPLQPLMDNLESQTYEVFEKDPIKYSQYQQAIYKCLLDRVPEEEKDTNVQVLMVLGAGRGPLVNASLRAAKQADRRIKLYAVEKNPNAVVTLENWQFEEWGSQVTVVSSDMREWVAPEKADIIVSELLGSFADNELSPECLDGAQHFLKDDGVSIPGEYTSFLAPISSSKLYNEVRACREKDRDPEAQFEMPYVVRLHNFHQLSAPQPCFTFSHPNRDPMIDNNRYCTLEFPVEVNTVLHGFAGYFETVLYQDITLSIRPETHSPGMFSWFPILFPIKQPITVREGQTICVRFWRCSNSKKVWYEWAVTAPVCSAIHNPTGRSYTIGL
PRMT5-MEP50, sequence (Q9BQA1 whole entry partner): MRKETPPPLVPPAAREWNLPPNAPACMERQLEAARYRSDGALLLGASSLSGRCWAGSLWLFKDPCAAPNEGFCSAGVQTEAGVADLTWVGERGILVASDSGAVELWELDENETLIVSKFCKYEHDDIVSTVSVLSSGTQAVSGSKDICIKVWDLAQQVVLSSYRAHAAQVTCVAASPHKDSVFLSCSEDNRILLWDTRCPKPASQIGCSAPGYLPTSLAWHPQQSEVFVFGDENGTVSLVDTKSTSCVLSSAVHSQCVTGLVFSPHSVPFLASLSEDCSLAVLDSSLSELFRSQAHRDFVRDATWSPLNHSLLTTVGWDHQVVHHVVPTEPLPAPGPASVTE
Procedure: Assays were performed in a 25 μl-volume in 384-well V-bottom polypropylene microplates (Greiner Bio-One, cat. No. 781280) at ambient temperature. Optimized 1× assay buffer was 20 mM Tris-HCl pH 8.0, 1 mM DTT, […]. For compound screening PRMT5-MEP50 (final concentration, f.c.=2.5 nM) was added using a Multidrop Combi (ThermoFisher Scientific, Waltham, Mass.) and preincubated for 5 min. Reactions were started by adding 3′ biotinylated histone H4 peptide acetylated on serine 1 (Ac-[…]-Biotin) (f.c.=100 nM) and 3H-SAM (f.c.=250 nM) substrates. Reactions proceeded for 60 minutes and were quenched with excess non-radioactive SAM (f.c.=15 μM). The reactions were then transferred to streptavidin-coated flashplates and incubated for 2 hours at 25° C. Following two washing cycles with 0.1% Tween-20, the plates were sealed and read on a TopCount (PerkinElmer, Waltham, Mass.) plate-based scintillation counter. For determination of kinetic parameters, reaction times were optimized so that measurements were taken during the initial velocity phase of the reaction.

[4] = METTL1/WDR4 6.25 nM, RNA 25 nM, 3H-SAM 60 nM, 20 min, read-out: METTL1 IC50

METTL1/WDR4, sequence (Q9UBP6 whole entry, species assumed): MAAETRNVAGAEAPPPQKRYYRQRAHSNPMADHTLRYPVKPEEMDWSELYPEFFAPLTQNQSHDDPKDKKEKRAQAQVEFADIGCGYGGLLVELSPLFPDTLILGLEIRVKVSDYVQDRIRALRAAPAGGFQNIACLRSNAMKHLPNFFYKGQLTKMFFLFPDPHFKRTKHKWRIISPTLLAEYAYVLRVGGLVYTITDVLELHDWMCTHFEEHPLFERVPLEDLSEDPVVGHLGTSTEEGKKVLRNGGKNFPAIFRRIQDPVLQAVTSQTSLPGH
METTL1/WDR4, sequence (P57081 whole entry partner, species assumed): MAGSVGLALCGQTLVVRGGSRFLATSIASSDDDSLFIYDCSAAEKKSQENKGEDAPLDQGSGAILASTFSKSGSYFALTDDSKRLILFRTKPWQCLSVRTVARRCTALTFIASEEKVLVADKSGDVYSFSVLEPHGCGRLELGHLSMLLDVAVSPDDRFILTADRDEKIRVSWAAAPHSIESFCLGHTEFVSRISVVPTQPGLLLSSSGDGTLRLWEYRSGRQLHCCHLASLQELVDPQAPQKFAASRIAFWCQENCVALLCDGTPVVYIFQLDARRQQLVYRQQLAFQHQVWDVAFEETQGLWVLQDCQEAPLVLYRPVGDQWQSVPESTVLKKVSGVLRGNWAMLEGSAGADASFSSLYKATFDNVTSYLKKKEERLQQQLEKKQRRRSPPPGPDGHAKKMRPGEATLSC

| Compound | IC50 [1, 4] [µM] | IC50 [2] [µM] | IC50 [3] [µM] | IC50 [1] [µM] |
| --- | --- | --- | --- | --- |
| Nc1ccc2ccc(OCc3cncc(-n4ccc5c(N)ncnc54)c3)cc2n1 [Compound I-240] | > 1 | 0.01 to 0.1 | > 1 | – |
| CNc1ccc2ccc(OCc3cc(-n4ccc5c(N)ncnc54)n[nH]3)cc2n1 [Compound I-2] | – | – | > 1 | > 1 |
| Nc1ncnc2c1c(Cl)cn2-c1nnc(COc2ccc3ccc(N4CCCC4)nc3c2)s1 [Compound I-38, 5-chloro-7-(5-(((2-(pyrrolidin-1-yl)quinolin-7-yl)oxy)methyl)-1,3,4-thiadiazol-2-yl)-7H-pyrrolo[2,3-d]pyrimidin-4-amine trifluoroacetate] | – | > 1 | > 1 | > 1 |
| CNc1ccc2ccc(OCc3cc(C(N)=O)cc(-n4cc(Cl)c5c(N)ncnc54)c3)cc2n1 [Compound I-21] | > 1 | 0.1 to 1 | > 1 | – |
| CNc1ccc2cc(F)c(OCc3cncc(-n4cc(C5CCCC5)c5c(N)ncnc54)c3)cc2n1 [Compound I-5] | > 1 | – | > 1 | – |
| CNc1ccc2ccc(OCc3ncc(-n4cc(Cl)c5c(N)ncnc54)s3)cc2n1 [Compound I-24] | – | > 1 | > 1 | > 1 |
| Cc1cc(NCCN(C)CCCc2ccccc2)c2ccc(OCc3cncc(-n4ccc5c(N)ncnc54)c3)cc2n1 [Compound I-98] | > 1 | 0.01 to 0.1 | > 1 | – |
| CCc1nc(N)c2ccn(-c3cncc(COc4ccc5ccc(NC)nc5c4)c3)c2n1 [Compound I-8] | > 1 | < 0.01 | > 1 | – |
| Nc1ncnc2c1c(C1CCCO1)cn2-c1cncc(COc2cnc3ccc(N4CCC4)nc3c2)c1 (centres unmarked) [Compound I-207] | – | > 1 | > 1 | – |
| CNc1ccc2ccc(OC(C)c3cncc(-n4ccc5c(N)ncnc54)c3)cc2n1 (centres unmarked) [Compound I-4] | > 1 | – | > 1 | – |
| CNc1ccc2ccc(OCc3nc(-n4ccc5c(N)ncnc54)cs3)cc2n1 [Compound I-19] | – | 0.01 to 0.1 | > 1 | > 1 |
| CN1CCN(c2ccc3ccc(OCc4cncc(-n5cc(-c6ccn(C)n6)c6c(N)ncnc65)c4)cc3n2)CC1 [Compound I-204] | – | 0.1 to 1 | > 1 | – |
| Cn1ccc(-c2cn(-c3cncc(COc4ccc(CN5CCOCC5)c(N)c4)c3)c3ncnc(N)c23)n1 [Compound I-210] | – | 0.1 to 1 | > 1 | – |
| CCc1cc(N(C)C2CC2)c2ccc(OCc3cncc(-n4cc([C@@H]5CCCO5)c5c(N)ncnc54)n3)cc2n1 [Compound I-174] | – | 0.01 to 0.1 | > 1 | – |
